In patent US9708314B2, “Heterocyclic amide compound” (NISSAN CHEMICAL INDUSTRIES, LTD., priority 2013, dated 2017):

What was measured:
Leptochloa chinensis = assay: Test Example 3: herbicidal effect by application to foliage (Wagner pot, water depth 0.1-0.5 cm); assay type: in vivo; settings: Nineteenth Table; application herbicide amount 320 g/ha
Method in brief: (§1)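 Alluvial soil in 1/10000 are Wagner pots, sown and grown 14 days in a 25–30 °C greenhouse. An emulsifiable concentrate diluted in water to the set dose (g/ha) was sprayed on stems and leaves. Effect scored three weeks later on a 0–5 scale: 5 = ≥90% herbicidal ratio, 0 = ≤5%.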

Cyperus difformis = assay: as above; assay type: in vivo; settings: Nineteenth Table; application herbicide amount 320 g/ha
Method in brief: as §1

[1] = tested on: Echinochloa crus-galli var. crus-galli; assay: as above; assay type: in vivo; settings: Nineteenth Table; application herbicide amount 320 g/ha
Method in brief: as §1

Apera spica-venti. = assay: Test Example 4: herbicidal effect by application to foliage (diluvial soil, plastic box); assay type: in vivo; settings: application to foliage, application herbicide amount 320 g/ha
Method in brief: (§2)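 Read-out is a 0–5 visual grade of herbicidal ratio (5: ≥90%, almost withered; 0: ≤5%) taken three weeks after treatment. Compound was applied as a diluted emulsion to stem and leaf parts of 14-day greenhouse-grown plants (25° C. to 30° C.) at rates expressed as g/ha.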

Abutilon theophrasti = assay: as above; assay type: in vivo; settings: application to foliage, application herbicide amount 320 g/ha
Method in brief: as §2

Galium spurium = assay: as above; assay type: in vivo; settings: application to foliage, application herbicide amount 320 g/ha
Method in brief: as §2

Alopecurus myosuroides = assay: as above; assay type: in vivo; settings: application to foliage, application herbicide amount 320 g/ha
Method in brief: as §2

Veronica persica = assay: as above; assay type: in vivo; settings: application to foliage, application herbicide amount 320 g/ha
Method in brief: as §2

Digitaria ciliaris = assay: as above; assay type: in vivo; settings: application to foliage, application herbicide amount 320 g/ha
Method in brief: as §2

Setaria viridis = assay: as above; assay type: in vivo; settings: application to foliage, application herbicide amount 320 g/ha
Method in brief: as §2

Avena fatua = assay: as above; assay type: in vivo; settings: application to foliage, application herbicide amount 320 g/ha
Method in brief: as §2

[2] = tested on: Echinochloa crus-galli var. crus-galli; assay: as above; assay type: in vivo; settings: application to foliage, application herbicide amount 320 g/ha
Method in brief: as §2

Amaranthus retroflexus = assay: as above; assay type: in vivo; settings: application to foliage, application herbicide amount 320 g/ha
Method in brief: as §2

Stellaria media = assay: as above; assay type: in vivo; settings: application to foliage, application herbicide amount 320 g/ha
Method in brief: as §2

Lolium multiflorum Lam. = assay: as above; assay type: in vivo; settings: application to foliage, application herbicide amount 320 g/ha
Method in brief: as §2

Chenopodium album = assay: as above; assay type: in vivo; settings: application to foliage, application herbicide amount 320 g/ha
Method in brief: as §2

[3] = tested on: directly sowed Oryza sativa; assay: Test Example 4: effect on crop by application to foliage (diluvial soil, plastic box); assay type: in vivo; settings: application to foliage, application herbicide amount 320 g/ha
Method in brief: as §2

[4] = tested on: Beta vulgaris ssp. vulgaris; assay: as above; assay type: in vivo; settings: application to foliage, application herbicide amount 320 g/ha
Method in brief: as §2

Brassica campestris L. = assay: as above; assay type: in vivo; settings: application to foliage, application herbicide amount 320 g/ha
Method in brief: as §2

Zea mays = assay: as above; assay type: in vivo; settings: application to foliage, application herbicide amount 320 g/ha
Method in brief: as §2

Glycine max = assay: as above; assay type: in vivo; settings: application to foliage, application herbicide amount 320 g/ha
Method in brief: as §2

Triticum aestivum = assay: as above; assay type: in vivo; settings: application to foliage, application herbicide amount 320 g/ha
Method in brief: as §2

[5] = tested on: directly sowed Oryza sativa; assay: Test Example 3: effect on crop by application to foliage (Wagner pot, water depth 0.1-0.5 cm); assay type: in vivo; settings: Nineteenth Table; application herbicide amount 320 g/ha
Method in brief: as §1

## Cc1nnc(NC(=O)c2ccc(C(F)(F)F)n3c(Cl)nnc23)o1 [1-013, 3-Chloro-N-(5-methyl-1,3,4-oxadiazol-2-yl)-5-(trifluoromethyl)-[1,2,4]triazolo[4,3-a]pyridine-8-carboxamide]
other
  melting point: 238 to 241 °C
Leptochloa chinensis
  D (Leptochloa chinensis) herbicidal ratio grade: 4 (Herbicidal ratio of 70% or more and less than 90%)
Cyperus difformis
  E (Cyperus difformis) herbicidal ratio grade: 3 (Herbicidal ratio of 40% or more and less than 70%)
[1]
  H (Echinochloa crus-galli var. crus-galli) herbicidal ratio grade: 3 (Herbicidal ratio of 40% or more and less than 70%)
Apera spica-venti.
  L (Apera spica-venti.) herbicidal effect: 0 (Herbicidal ratio of 5% or less (almost no effect))
Abutilon theophrasti
  M (Abutilon theophrasti) herbicidal effect: 3 (Herbicidal ratio of 40% or more and less than 70%)
Galium spurium
  Q (Galium spurium) herbicidal effect: 1 (Herbicidal ratio of 5% or more and less than 20%)
Alopecurus myosuroides
  J (Alopecurus myosuroides) herbicidal effect: 1 (Herbicidal ratio of 5% or more and less than 20%)
Veronica persica
  R (Veronica persica) herbicidal effect: 3 (Herbicidal ratio of 40% or more and less than 70%)
Digitaria ciliaris
  F (Digitaria ciliaris) herbicidal effect: 3 (Herbicidal ratio of 40% or more and less than 70%)
Setaria viridis
  G (Setaria viridis) herbicidal effect: 1 (Herbicidal ratio of 5% or more and less than 20%)
Avena fatua
  I (Avena fatua) herbicidal effect: 0 (Herbicidal ratio of 5% or less (almost no effect))
[2]
  H (Echinochloa crus-galli var. crus-galli) herbicidal effect: 4 (Herbicidal ratio of 70% or more and less than 90%)
Amaranthus retroflexus
  N (Amaranthus retroflexus) herbicidal effect: 3 (Herbicidal ratio of 40% or more and less than 70%)
Stellaria media
  P (Stellaria media) herbicidal effect: 4 (Herbicidal ratio of 70% or more and less than 90%)
Lolium multiflorum Lam.
  K (Lolium multiflorum Lam.) herbicidal effect: 1 (Herbicidal ratio of 5% or more and less than 20%)
Chenopodium album
  O (Chenopodium album) herbicidal effect: 5 (Herbicidal ratio of 90% or more (almost completely withered))
[3]
  d (directly sowed Oryza sativa) effect on crop: 0 (Herbicidal ratio of 5% or less (almost no effect))
[4]
  f (Beta vulgaris ssp. vulgaris) effect on crop: 3 (Herbicidal ratio of 40% or more and less than 70%)
Brassica campestris L.
  g (Brassica campestris L.) effect on crop: 0 (Herbicidal ratio of 5% or less (almost no effect))
Zea mays
  b (Zea mays) effect on crop: 0 (Herbicidal ratio of 5% or less (almost no effect))
Glycine max
  c (Glycine max) effect on crop: 0 (Herbicidal ratio of 5% or less (almost no effect))
Triticum aestivum
  e (Triticum aestivum) effect on crop: 1 (Herbicidal ratio of 5% or more and less than 20%)
[5]
  b (directly sowed Oryza sativa) effect on crop grade: 0 (Herbicidal ratio of 5% or less (almost no effect))

## Cc1nonc1NC(=O)c1ccc(C(F)(F)F)n2c(C(C)C)nnc12 [3-001, 3-Isopropyl-N-(4-methyl-1,2,5-oxadiazol-3-yl)-5-(trifluoromethyl)-[1,2,4]triazolo[4,3-a]pyridine-8-carboxamide]
other
  melting point: 185 to 186 °C
